Experimental data reported in ChEMBL document CHEMBL5352465, “Small molecules containing chalcogen elements (S, Se, Te) as new warhead to fight neglected tropical diseases” (Eur J Med Chem, 2023).
pIC50: −log10 of the molar value.

Columns and labels:
Trypanosoma cruzi [1] = experiment: Antitrypanosomal activity against Trypanosoma cruzi arequipa strain trypomastigotes assessed as parasite growth inhibition incubated for 48 hrs by resazurin staining based analysis; type: functional, organism-based
Trypanosoma cruzi [2] = experiment: Antitrypanosomal activity against Trypanosoma cruzi arequipa strain epimastigotes assessed as parasite growth inhibition incubated for 48 hrs by resazurin staining based analysis; type: functional, organism-based
Trypanosoma cruzi [3] = experiment: Antitrypanosomal activity against Trypanosoma cruzi arequipa strain amastigotes assessed as parasite growth inhibition incubated for 48 hrs by resazurin staining based analysis; type: functional, organism-based
Trypanosoma cruzi [4] = experiment: Antitrypanosomal activity against bloodstream Trypanosoma cruzi NINOA strain trypomastigotes assessed as parasite growth inhibition incubated for 24 hrs by microscopic analysis; type: functional
Trypanosoma cruzi [5] = experiment: Antitrypanosomal activity against bloodstream Trypanosoma cruzi INC-5 strain trypomastigotes assessed as parasite growth inhibition incubated for 24 hrs by microscopic analysis; type: functional
Leishmania infantum [6] = experiment: Antileishmanial activity against Leishmania infantum amastigotes assessed as inhibition of parasite growth; type: functional, organism-based
Trypanosoma cruzi [7] = experiment: Antitrypanosomal activity against Trypanosoma cruzi epimastigote assessed as parasite growth inhibition; type: functional, organism-based
[8] = Selectivity index, ratio of CC50 for mouse J774.A1 cells to ratio of IC50 for antitrypanosomal activity against bloodstream Trypanosoma cruzi NINOA strain trypomastigotes; type: toxicity; details: read-out: Ratio CC50/IC50
[9] = Selectivity index, ratio of CC50 for mouse J774.A1 cells to ratio of IC50 for antitrypanosomal activity against bloodstream Trypanosoma cruzi INC-5 strain trypomastigotes; type: toxicity; details: read-out: Ratio CC50/IC50
Leishmania braziliensis = experiment: Antileishmanial activity against Leishmania braziliensis MHOM/BR/75/M2903 strain promastigotes assessed as reduction in cell viability incubated for 48 hrs by MTT assay; type: functional, organism-based; details: MHOM/BR/75/M2903, 48 h
Leishmania infantum [10] = experiment: Antileishmanial activity against Leishmania infantum MHOM/BR/74/PP75 strain promastigotes assessed as reduction in cell viability incubated for 48 hrs by MTT assay; type: functional, organism-based; details: MHOM/BR/74/PP75, 48 h
[11] = Selectivity index, ratio of CC50 for human WI26VA4 cells to ratio of IC50 for antileishmanial activity against Leishmania braziliensis MHOM/BR/75/M2903 promastigote; type: toxicity; details: read-out: Ratio CC50/IC50
[12] = Selectivity index, ratio of CC50 for human WI26VA4 cells to ratio of IC50 for antileishmanial activity against Leishmania infantum MHOM/BR/74/PP75 promastigote; type: toxicity; details: read-out: Ratio CC50/IC50
Trypanosoma cruzi [13] = experiment: Antitrypanosomal activity against bloodstream Trypanosoma cruzi Y strain trypomastigotes assessed as parasite growth inhibition incubated for 24 hrs by light microscopic analysis; type: functional, organism-based
Trypanosoma cruzi [14] = experiment: Antitrypanosomal activity against Trypanosoma cruzi epimastigote Dm28c strain assessed as parasite growth inhibition; type: functional, organism-based
Trypanosoma cruzi [15] = experiment: Antitrypanosomal activity against Trypanosoma cruzi amastigote assessed as parasite growth inhibition; type: functional, organism-based
[16] = Selectivity index, ratio of CC50 for cytotoxicity against mouse RAW264.7 cells to IC50 for antitrypanosomal activity against Trypanosoma cruzi epimastigote; type: toxicity, cell-based; details: read-out: Ratio CC50/IC50
[17] = Selectivity index, ratio of CC50 for cytotoxicity against mouse RAW264.7 cells to IC50 for antitrypanosomal activity against Trypanosoma cruzi amastigote; type: toxicity, cell-based; details: read-out: Ratio CC50/IC50
Leishmania amazonensis = experiment: Antileishmanial activity against Leishmania amazonensis promastigotes assessed as inhibition of parasite growth; type: functional, organism-based
Leishmania major = experiment: Antileishmanial activity against Leishmania major promastigote assessed as inhibition of parasite growth; type: functional, organism-based

N#C[Se]Cc1cccc(C#N)c1
pIC50 (Trypanosoma cruzi [1]): 6.05
pIC50 (Trypanosoma cruzi [2]): 6.00
pIC50 (Trypanosoma cruzi [3]): 6.10

Fc1cccc(CSc2nc3ccccc3s2)c1
LC50 (Trypanosoma cruzi [4]): > 350 µM
LC50 (Trypanosoma cruzi [5]): > 350 µM

Cc1ccc([Te]Cc2ncc(-c3ccc(S(N)(=O)=O)cc3)[se]2)cc1
pIC50 (Leishmania infantum [6]): 6.47

NC(=S)N/C=N/c1c(C(F)(F)F)nn(-c2ccccc2)c1-c1ccc([N+](=O)[O-])cc1
pIC50 (Trypanosoma cruzi [7]): 4.34

Fc1c(F)c(F)c(CSc2nc3ccccc3s2)c(F)c1F
LC50 (Trypanosoma cruzi [4]): 147 µM
LC50 (Trypanosoma cruzi [5]): 185 µM
selectivity ratio [8]: 1.69
selectivity ratio [9]: 1.34

NS(=O)(=O)c1ccc(NC(=[Se])NC(=O)c2ccccc2)cc1
pIC50 (Leishmania infantum [6]): 5.28

c1ccc2c(c1)nnn2C[Se][Se]Cn1nnc2ccccc21
pIC50 (Leishmania infantum [6]): 6.35

c1ccc(CSc2nc3ccccc3s2)cc1
LC50 (Trypanosoma cruzi [4]): 123 µM
LC50 (Trypanosoma cruzi [5]): 336 µM
selectivity ratio [8]: > 7.29
selectivity ratio [9]: > 2.68

CSc1ccc(C[Se][Se]Cc2ccc(SC)cc2)cc1
pIC50 (Trypanosoma cruzi [1]): 5.77
pIC50 (Trypanosoma cruzi [2]): 5.74
pIC50 (Trypanosoma cruzi [3]): 5.92

O=C1c2ccccc2C(=O)c2cc(C[Se][Se]Cc3ccc4c(c3)C(=O)c3ccccc3C4=O)ccc21
pIC50 (Leishmania infantum [6]): 6.17

NC(=S)N/C=N/c1c(C(F)(F)F)nn(-c2ccccc2)c1-c1ccc(F)cc1
pIC50 (Trypanosoma cruzi [7]): 4.16

O=C1NC(=O)/C(=C/c2ccc(Cl)cc2Cl)S1
pIC50 (Leishmania braziliensis): 4.35
pIC50 (Leishmania infantum [10]): 4.39
selectivity ratio [11]: 0.76
selectivity ratio [12]: 0.82

O=C1NC(=O)/C(=C/c2ccc(Cl)c(Cl)c2)S1
pIC50 (Leishmania braziliensis): 4.18
pIC50 (Leishmania infantum [10]): 4.63
selectivity ratio [11]: 0.66
selectivity ratio [12]: 1.85

CC1(C)OC2=C(CC1[Se]c1cccc3ccccc13)C(=O)C(=O)c1ccccc12 (stereo not given)
pIC50 (Trypanosoma cruzi [13]): 4.24

O=C(Nc1ccc([Se][Se]c2ccc(NC(=O)c3ccc(C(F)(F)F)cc3)cc2)cc1)c1ccc(C(F)(F)F)cc1
pIC50 (Trypanosoma cruzi [1]): 5.62
pIC50 (Trypanosoma cruzi [3]): 5.27

CC1(C)OC2=C(CC1[Se]c1cccs1)C(=O)C(=O)c1ccccc12 (stereo not given)
pIC50 (Trypanosoma cruzi [13]): 4.20

NS(=O)(=O)c1nnc(NC(=O)Cc2ccc(Cl)cc2)s1
pIC50 (Trypanosoma cruzi [14]): 5.20
pIC50 (Trypanosoma cruzi [15]): 5.46
selectivity ratio [16]: 1
selectivity ratio [17]: 1

NS(=O)(=O)c1ccc(NC(=O)Cc2ccc(Cl)cc2)c(F)c1
pIC50 (Trypanosoma cruzi [14]): 5.45
pIC50 (Trypanosoma cruzi [15]): 5.55
selectivity ratio [16]: 2
selectivity ratio [17]: 3

N#Cc1ccc(C[Se][Se]Cc2ccc(C#N)cc2)cc1
pIC50 (Trypanosoma cruzi [1]): 6.05
pIC50 (Trypanosoma cruzi [2]): 5.89
pIC50 (Trypanosoma cruzi [3]): 6.30

COc1ccc(CC(=O)Nc2nnc(S(N)(=O)=O)s2)cc1
pIC50 (Trypanosoma cruzi [14]): 5.17
pIC50 (Trypanosoma cruzi [15]): 5.49
selectivity ratio [16]: 1
selectivity ratio [17]: 1

CCOP(=O)(Nc1ccc([Se][Se]c2ccc(NP(=O)(OCC)OCC)cc2)cc1)OCC
pIC50 (Leishmania infantum [6]): 6.77

NS(=O)(=O)c1ccc(CCNC(=O)Cc2ccc(Br)cc2)cc1
pIC50 (Trypanosoma cruzi [14]): 5.13
pIC50 (Trypanosoma cruzi [15]): 5.45
selectivity ratio [16]: 0.44
selectivity ratio [17]: 0.44

CC1=CC[C@@H](C(C)(C)NC(=S)N/N=C/c2ccc([N+](=O)[O-])cc2)CC1
pIC50 (Leishmania amazonensis): 4.95

NS(=O)(=O)c1ccc(NC(=[Se])NC(=O)c2ccc3c(c2)OCO3)cc1
pIC50 (Leishmania infantum [6]): 5.28

COc1ccc(CSc2nc3ccccc3s2)cc1
LC50 (Trypanosoma cruzi [4]): 308 µM
LC50 (Trypanosoma cruzi [5]): 276 µM
selectivity ratio [8]: > 2.92
selectivity ratio [9]: > 3.26

O=C1C(=O)c2ccccc2C2=C1CC(C[Se]c1ccc(Cl)cc1)O2 (stereo not given)
pIC50 (Trypanosoma cruzi [13]): 4.23

O=S(=O)(Nc1ccc([Se][Se]c2ccc(NS(=O)(=O)c3ccc(C(F)(F)F)cc3)cc2)cc1)c1ccc(C(F)(F)F)cc1
pIC50 (Trypanosoma cruzi [1]): 5.70
pIC50 (Trypanosoma cruzi [2]): 5.57
pIC50 (Trypanosoma cruzi [3]): 5.64

O=C(Nc1ccc([Se][Se]c2ccc(NC(=O)c3ccco3)cc2)cc1)c1ccco1
pIC50 (Trypanosoma cruzi [1]): 5.74
pIC50 (Trypanosoma cruzi [3]): 5.49

Clc1ccc(CSc2nc3ccccc3s2)cc1
LC50 (Trypanosoma cruzi [4]): > 350 µM
LC50 (Trypanosoma cruzi [5]): 263 µM
selectivity ratio [9]: > 3.42

NC(=S)N/C=N/c1c(C(F)(F)F)nn(-c2ccccc2)c1-c1ccccc1
pIC50 (Trypanosoma cruzi [7]): 4.08

NC(=S)N/C=N/c1c(C(F)(F)F)nn(-c2ccccc2)c1-c1ccc(Cl)cc1
pIC50 (Trypanosoma cruzi [7]): 4.31

Fc1ccc(CSc2nc3ccccc3s2)cc1
LC50 (Trypanosoma cruzi [4]): > 350 µM
LC50 (Trypanosoma cruzi [5]): > 350 µM

FC(F)(F)c1ccc(C[Se][Se]Cc2ccc(C(F)(F)F)cc2)cc1
pIC50 (Trypanosoma cruzi [1]): 5.82
pIC50 (Trypanosoma cruzi [2]): 5.72
pIC50 (Trypanosoma cruzi [3]): 6.10

O=C1NC(=O)/C(=C/c2cc(Cl)cc(Cl)c2Cl)S1
pIC50 (Leishmania braziliensis): 4.33
pIC50 (Leishmania infantum [10]): 4.52
selectivity ratio [11]: 0.63
selectivity ratio [12]: 0.96

NS(=O)(=O)c1ccc(NC(=O)Cc2ccccc2Br)c(F)c1
pIC50 (Trypanosoma cruzi [14]): 5.25
pIC50 (Trypanosoma cruzi [15]): 5.64
selectivity ratio [16]: 1
selectivity ratio [17]: 3

O=C(Nc1ccc([Se][Se]c2ccc(NC(=O)c3ccc([N+](=O)[O-])cc3)cc2)cc1)c1ccc([N+](=O)[O-])cc1
pIC50 (Trypanosoma cruzi [1]): 4.45
pIC50 (Trypanosoma cruzi [3]): 4.31

O=P(Nc1ccc([Se][Se]c2ccc(NP(=O)(Oc3ccccc3)Oc3ccccc3)cc2)cc1)(Oc1ccccc1)Oc1ccccc1
pIC50 (Leishmania infantum [6]): 4.84

O=C1NC(=O)/C(=C/c2cc(Cl)cc(Br)c2O)S1
pIC50 (Leishmania braziliensis): 4.32
pIC50 (Leishmania infantum [10]): 4.44
selectivity ratio [11]: 0.55
selectivity ratio [12]: 0.74

Cc1ccc(S(=O)(=O)Nc2ccc([Se][Se]c3ccc(NS(=O)(=O)c4ccc(C)cc4)cc3)cc2)cc1
pIC50 (Trypanosoma cruzi [1]): 5.43
pIC50 (Trypanosoma cruzi [2]): 5.29
pIC50 (Trypanosoma cruzi [3]): 5.38

COc1ccc([Te]Cc2ccc(S(N)(=O)=O)cc2)cc1
pIC50 (Leishmania infantum [6]): 5.21

NS(=O)(=O)c1ccc(-c2cnc(C[Se]c3ccccc3)[se]2)cc1
pIC50 (Leishmania infantum [6]): 5.39

COP(=O)(Nc1ccc([Se][Se]c2ccc(NP(=O)(OC)OC)cc2)cc1)OC
pIC50 (Leishmania infantum [6]): 6.48

O=C(Nc1ccc([Se][Se]c2ccc(NC(=O)c3cccs3)cc2)cc1)c1cccs1
pIC50 (Trypanosoma cruzi [1]): 4.90
pIC50 (Trypanosoma cruzi [3]): 4.81

CC1=CC[C@@H](C(C)(C)NC(=S)NN)CC1
pIC50 (Leishmania amazonensis): 5.52

NS(=O)(=O)c1ccc(C[Te]c2ccc3ccccc3c2)cc1
pIC50 (Leishmania infantum [6]): 5.23

Oc1ccc(-c2nnc(-c3ccc4ncccc4c3)s2)c(O)c1
pIC50 (Leishmania major): 6.15

NC(=S)N/C=N/c1c(C(F)(F)F)nn(-c2ccccc2)c1-c1ccc(Br)cc1
pIC50 (Trypanosoma cruzi [7]): 4.52

Oc1cccc(-c2nnc(-c3ccc4ncccc4c3)s2)c1O
pIC50 (Leishmania major): 7.40

NS(=O)(=O)c1nnc(NC(=O)Cc2ccccc2Br)s1
pIC50 (Trypanosoma cruzi [14]): 5.40
pIC50 (Trypanosoma cruzi [15]): 5.67
selectivity ratio [16]: 2
selectivity ratio [17]: 5

O=C1NC(=O)/C(=C/c2ccccc2Cl)S1
pIC50 (Leishmania braziliensis): 4.15
pIC50 (Leishmania infantum [10]): 4.16
selectivity ratio [11]: 0.86
selectivity ratio [12]: 0.89

CCOP(=S)(Nc1ccc([Se][Se]c2ccc(NP(=S)(OCC)OCC)cc2)cc1)OCC
pIC50 (Leishmania infantum [6]): 6.10

N#C[Se]Cc1ccccc1[N+](=O)[O-]
pIC50 (Trypanosoma cruzi [1]): 5.89
pIC50 (Trypanosoma cruzi [2]): 6.05
pIC50 (Trypanosoma cruzi [3]): 6.30

Fc1cccc(F)c1CSc1nc2ccccc2s1
LC50 (Trypanosoma cruzi [4]): 110 µM
LC50 (Trypanosoma cruzi [5]): 260 µM
selectivity ratio [8]: 4.48
selectivity ratio [9]: 1.91

O=C1C(=O)c2ccccc2C2=C1CC(C[Se]c1cccc(C(F)(F)F)c1)O2 (stereo not given)
pIC50 (Trypanosoma cruzi [13]): 4.12

COc1ccc(-c2c(/N=C/NC(N)=S)c(C(F)(F)F)nn2-c2ccccc2)cc1
pIC50 (Trypanosoma cruzi [7]): 4.53

Cc1ccc(C[Se]C#N)cc1
pIC50 (Trypanosoma cruzi [1]): 5.35
pIC50 (Trypanosoma cruzi [2]): 5.52
pIC50 (Trypanosoma cruzi [3]): 5.51
